Experimental data from patent publication US11058668B2 (EIDOS THERAPEUTICS, INC., priority 2018, dated 2021).
“And” between values parts separate entries of the source, which are not always exact repeats. Equal entries are not always repeated.

Legend:
[1] = molecular target: tetrameric TTR (Homo sapiens, UniProt P02766); assay: Western blot for stabilization of tetrameric TTR, Phase 1 subjects; format: in vivo; design: from tissue; host or cells: serum / blood plasma of dosed healthy human volunteers; details: 800 mg AG10 HCl q12h, day 12 predose (trough) and post dose (peak); 72h acidification
Method: (§5) Blood plasma samples from the subject are diluted with acidification buffer (sodium acetate, KCl, EDTA, DTT, pH about 4.0) for both the 0 and 72 hour time point. Time 0 hr samples are directly cross-linked with glutaraldehyde, and then quenched. 72 hr samples are incubated at room temperature for 72 hr and then cross-linked and quenched by the same protocol. All samples are then denatured by adding SDS gel loading buffer and boiled prior to gel loading. Each sample is separated in SDS-PAGE gels and analyzed by immunoblotting using anti-TTR antiserum (Polyclonal Rabbit Anti-Human Prealbumin. DAKO Cat# A0002). The density of all TTR bands are quantified using infrared LICOR imaging system or Fluorescence Imaging system and reported. Normalization by IgG band using LICOR 925-32232 or Invitrogen 84546.

[2] = molecular target: T1, tetrameric TTR (Homo sapiens, UniProt P02766, V50M); assay: Phase 2 study, Western blot of tetrameric TTR ex vivo; format: in vivo; details: individual with V30M TTR mutation, 800 mg b.i.d.
T1 construct: monitoring TTR serum concentrations in trial participants; from tissue; host or cells: serum / plasma of ATTR-CM patients
Method: as §5

[3] = molecular target: T2, human serum albumin (HSA) (Homo sapiens, UniProt P02768); assay: biochemical
Method: (§6) Isothermal Titration Calorimetry (ITC). Binding experiments were performed using MicroCal PEAQ-ITC at 25° C. […] 19 injections of ligand (2.0 μL each) were injected into the ITC cell (at 25° C.) to the point that TTR was fully saturated with ligand. Calorimetric data were plotted and fitted using the standard single-site binding model.

[4] = pKa values of stabilizers; format: physicochemical; details: carboxylic acid group
[5] = Population PK analysis, effect of disease state and diuretics; format: in vivo, human
Description: Thus, the final model retained disease state on the central volume of distribution.
Of the 17 subjects who were on placebo, 14 were on furosemide or torsemide.

[6] = molecular target: T3, TTR in human serum (Homo sapiens, UniProt P02766); assay: FPE assay in human serum; format: binding; details: whole human serum, FPE concentration-effect
T3 construct: pooled human serum (prepared from human male AB plasma, Sigma; catalog no; H4522; TTR concentration 5 μM); tissue Sigma H4522; host or cells: pooled human serum from human male AB plasma
Description: FPE assay for binding TTR in buffer and human or dog serum. […] The FPE probe is a thioester TTR ligand that is not fluorescent by itself, however upon binding to the T4 binding site of TTR it covalently modifies lysine 15 (K15), creating a fluorescent conjugate. Ligands that bind to the T4 site of TTR will decrease FPE probe binding as observed by lower fluorescence. […] The change in fluorescence (λex=328 nm and λem=384 nm) were monitored using a microplate spectrophotometer reader (SpectraMax M5) for 6 hr at rt. […] The change in fluorescence (λex=328 nm and λem=384 nm) were monitored using a microplate spectrophotometer reader (SpectraMax M5) for 6 hr at rt.

[7] = molecular target: T4, TTR (Homo sapiens, UniProt P02766, V50M); assay: Phase 2 study in ATTR-CM patients, serum TTR concentration (ARUP Prealbumin assay); format: in vivo; details: 800 mg b.i.d., V30M
T4 construct: monitoring TTR serum concentrations in trial participants; from tissue; host or cells: serum / plasma of ATTR-CM patients
Method: (§1) Screening and randomization will be followed by a 28-day blinded, placebo-controlled treatment period. Approximately 45 subjects are planned to enroll in the Phase 2 study.
(§2) An ARUP Prealbumin assay was also used to analyze TTR blood serum concentration in the MAD cohorts tested. ARUP analyzes samples for prealbumin using the prealbumin reagent kit provided by Roche Diagnostics and run on the Roche Diagnostics c702 module. Lowest reportable limit is 3 mg/dL.
(§3) The phase 2 clinical study was performed essentially as described in Example 3. A total of 49 patents were included instead of 45: 16 receiving 400 mg bid; 16 receiving 800 mg bid; and 17 receiving placebo.
(§4) TTR stabilization was measured ex vivo using the FPE and Western blot assays described at the beginning of the examples section. TTR stabilization was measured in vivo by monitoring TTR serum concentrations in trial participants.

[8] = test system: TTR; assay: as above; format: in vivo, human; details: for Blood Serum TTR Concentration, Average Change: V122I; for Blood Serum TTR Concentration, Average Change (baseline to day 28): all genotypes, ATTR-CM patients
Method: as §1, §2, §3, §4

[9] = molecular target: TTR (Homo sapiens, UniProt P02766); assay: Isothermal titration calorimetry (ITC) with TTR in buffer; details: 25° C.
Method: as §6

[10] = molecular target: T2, human serum albumin (HSA); assay: Gel filtration and dialysis binding to human serum albumin; design: albumin from human serum; Sigma Aldrich, catalog no.: A3782; purchased Sigma Aldrich A3782; host or cells: human serum; details: 30 μM compound, 600 μM albumin
Method: The concentration of HSA (i.e. concentration at time zero) was also determined using NanoDrop™ (based on calibration curves of known HAS concentrations). […] The concentration of test compounds in these fractions (i.e. conc. at time zero) was evaluated using HPLC (based on calibration curves of known concentration of test compounds). 500 μL of each HSA/test compound samples was then added to a Slide-A-Lyzer Dialysis Cassette G2 (3.5K MWCO, Thermo Scientific, catalog no. P187722). The dialysis Cassettes were placed in 100 ml of assay buffer and stirred at room temperature. After 24 hr, the samples were removed from dialysis cassette and the volume was measured. The concentration of HAS and test compounds were determined using NanoDrop™ and HPLC as described above.

[11] = molecular target: T5, TTR (Macaca fascicularis, UniProt Q8HXW1); assay: Single dose study in monkeys, FPE assay on serum; format: in vivo, cynomolgus monkey
T5 construct: from tissue; host or cells: serum of dosed male cynomolgus monkeys
Method: There was a washout period of two weeks between the two phases. Blood samples were collected at pre-dose and at approximately 0.083 (IV only), 0.25, 0.5, 1, 2, 4, 8, 12, 24, 48, 72 and 96 hours post-dose. Plasma samples were assayed for AG10 and AG10 acylglucuronide and serum was tested in FPE assay.

T2 sequence (P02768 25-609): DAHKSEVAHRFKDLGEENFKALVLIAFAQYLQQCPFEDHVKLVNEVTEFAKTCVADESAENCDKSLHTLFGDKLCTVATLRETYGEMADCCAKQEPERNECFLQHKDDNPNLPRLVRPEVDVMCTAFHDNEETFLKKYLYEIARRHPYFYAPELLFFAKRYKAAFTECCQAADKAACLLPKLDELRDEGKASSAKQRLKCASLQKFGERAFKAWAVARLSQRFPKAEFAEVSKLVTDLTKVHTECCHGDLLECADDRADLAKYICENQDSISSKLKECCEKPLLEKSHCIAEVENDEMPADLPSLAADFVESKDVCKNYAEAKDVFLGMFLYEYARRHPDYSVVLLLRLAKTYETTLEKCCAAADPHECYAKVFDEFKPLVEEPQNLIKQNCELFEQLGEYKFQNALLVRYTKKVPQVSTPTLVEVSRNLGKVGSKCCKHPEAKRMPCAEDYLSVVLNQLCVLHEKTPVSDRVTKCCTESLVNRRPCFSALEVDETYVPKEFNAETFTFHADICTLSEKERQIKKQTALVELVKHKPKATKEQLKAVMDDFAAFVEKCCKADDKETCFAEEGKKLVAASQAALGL

Cc1n[nH]c(C)c1CCCOc1cc(C(=O)O)ccc1F [AG10, 3-(3-(3,5-dimethyl-1H-pyrazol-4-yl)propoxy)-4-fluorobenzoic acid]
stabilization of tetrameric TTR (Western blot) [1]: full stabilization of tetrameric TTR | TTR stabilization at day 28 (western blot) [2]: near complete TTR stabilization | Kd [3]: ~8 µM | pKa [4]: 4.13 | circulating trough concentration that is a suitable target based on stabilization of TTR ([5]; Phase 1 MAD 3 (800 mg Q12h) and Phase 2 ATTR-CM patients): ~8 µM | effect of commonly used diuretics on exposure ([5]; furosemide or torsemide co-administration): do not interfere with exposure | clearance ([5]; healthy adult volunteers in Phase 1 vs subjects in Phase 2, patient status or diuretics (furosemide/torsemide)): No difference in clearance | volume of distribution ([5]; subjects on furosemide/torsemide compared to healthy adult volunteers): lower | concentration at which complete occupancy is achieved [6]: ≥ 10 µM | Blood Serum TTR Concentration, Average Change [7]: 61% | Blood Serum TTR Concentration, Average Change ([8]; 400 mg b.i.d.): 51% | Blood Serum TTR Concentration, Average Change (baseline to day 28) ([8]; 400 mg b.i.d.): 36% | Blood Serum TTR Concentration, Average Change ([8]; 800 mg b.i.d.): 90% | Blood Serum TTR Concentration, Average Change (baseline to day 28) ([8]; 800 mg b.i.d.): 50% | share of cohort with serum TTR concentrations within normal range (20-40 mg/dL) ([8]; after 28 days of treatment, each active cohort (400 mg and 800 mg b.i.d.)): 100% | ΔH [9]: -13.60 kcal/mol and -13.6 kcal/mol | concentration bound to HSA following dialysis vs buffer for 24 hr [10]: 7.8 ± 0.1 µM | concentration bound to albumin at time 0 (immediately after gel filtration) [10]: 18.3 ± 0.98 µM | binding to TTR in serum (FPE assay) ([11]; 5 mg/kg per oral, 3 male monkeys): effectively binds to TTR in monkey serum | TTR stabilization versus dose (FPE assay) ([11]; orally administered): stabilized TTR in a dose dependent manner
